The values below come from ChEMBL document CHEMBL1201862, “PubChem BioAssay data set” (2004).

Common to all, as to experiment: DTP human tumour cell line panel, 48 h
The subject of experiment [1] is 786-0.
In experiment [2] the test system is ACHN.
Experiment [3] relates to CAKI-1.
Experiment [4] has as its system EKVX.
The subject of experiment [5] is HCT-15.
In experiment [6] the test system is HOP-62.
Experiment [7] concerns HOP-92.
In experiment [8] the test system is HT-29.
The subject of experiment [9] is IGROV-1.
In experiment [10] the test system is KM12.
Experiment [11] deals with MCF7.
Experiment [12] relates to MDA-MB-435.
In experiment [13] the test system is OVCAR-4.
Experiment [14] deals with SK-MEL-5.
Experiment [15] has as its system SK-OV-3.
The subject of experiment [16] is TK-10.
The test system of experiment [17] is HCC 2998.
The test system of experiment [18] is SNB-75.
The test system of experiment [19] is T47D.
Experiment [20] has as its system NCI-H23.

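Values below derive from 48-hour exposures of cells grown in 96-well plates, with endpoints linearly interpolated between the two concentrations bracketing the appropriate inhibition level. At the GI50, growth is halved.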 Activity calls are given as the source filed them. Rule as the data show it: active = GI50 up to about 1.1 µM and inactive = higher.

As usually defined, the GI50 is the concentration that inhibits growth by half. For `COc1ccc(/C=C2\CCC(C)C3=C2N=c2s/c(=C/c4cccc(Br)c4)c(=O)n2C3c2ccc(OC)c(OC)c2)cc1OC` (configuration not stated), the GI50 was > 100 µM (inactive) in experiment [1]; > 100 µM (inactive) in [2]; > 100 µM (inactive) in [3]; > 100 µM (inactive) in [4]; over 100 µM in experiment [5]; > 100 µM (inactive) in experiment [6]. The GI50 in experiment [7], in experiment [8], in experiment [9], in experiment [10], in experiment [11] and in experiment [12] was > 100 µM (inactive) in each case. Also, the GI50 in [13], in experiment [14], in experiment [15] and in experiment [16] was > 100 µM (inactive) each time.
As for `O=[N+]([O-])c1cc(Cl)ccc1S(=O)(=O)c1cc(Cl)cc2c1NCCC2`, the GI50 in experiment [1] is > 100 µM (inactive); in experiment [2], 40.9 µM (inactive); in [3] it was 66.7 µM (inactive); in [4], 85.7 µM (inactive); in experiment [17], > 100 µM (inactive); in experiment [5] it was 60.7 µM. Moreover, the GI50 in [6] is 69.2 µM (inactive); in experiment [7], 54.6 µM (inactive); in [8] it was 45.6 µM (inactive); in [9] it was 29.1 µM (inactive); in [10], 52.7 µM (inactive); in experiment [11], 37.8 µM (inactive). Moreover, the GI50 in [12] is 39.6 µM (inactive); in [13], > 100 µM (inactive); in experiment [14], 21.3 µM (inactive); in experiment [15], > 100 µM (inactive); in [18], 18.4 µM (inactive); in experiment [16] it was > 100 µM (inactive).
For the compound `COc1nc2c(c(=O)n1C)N[C@@H]1[C@@H](O)[C@H](O)CO[C@@H]1N2`, the GI50 in [1] is > 100 µM (inactive); in [3] it was > 100 µM (inactive); in [4], > 100 µM (inactive); in experiment [5] it was over 100 µM; in experiment [6] it was > 100 µM (inactive); in experiment [8], > 100 µM (inactive). The GI50 in experiment [9], in experiment [10], in experiment [11], in experiment [12], in experiment [13] and in experiment [14] was > 100 µM (inactive) each time. The GI50 in experiment [15], in experiment [18], in experiment [19] and in experiment [16] was > 100 µM (inactive) throughout.
With `Cc1c(/C=N\NC(=S)N(C)CCN(C)C(=S)N/N=C\c2c(C)n(C)n(-c3ccccc3)c2=O)c(=O)n(-c2ccccc2)n1C`, the GI50 in [1] is > 100 µM (inactive); in experiment [2] it was > 100 µM (inactive); in [3], > 100 µM (inactive); in experiment [4], > 100 µM (inactive); in [17], > 100 µM (inactive); in [5] it was over 100 µM. Further, the GI50 in [6], in experiment [7], in experiment [8], in [10], in [12] and in [20] was > 100 µM (inactive) each time. Moreover, the GI50 in experiment [13] is > 100 µM (inactive); in [14], > 100 µM (inactive); in [15], > 100 µM (inactive); in [18] it was 42.6 µM (inactive); in [19], > 100 µM (inactive); in [16], > 100 µM (inactive).
For the compound `CCOC(=O)C(=Cc1[nH]c2ccccc2c1-c1c[nH]c2ccccc12)C(=O)OCC`, the GI50 in experiment [1] is 2.75 µM (inactive); in experiment [2] it was 12.2 µM (inactive); in experiment [3], 17.1 µM (inactive); in [4] it was 16.1 µM (inactive); in [17], 11.6 µM (inactive); in experiment [5], 10.1 µM. The GI50 in experiment [6] is 14.2 µM (inactive); in experiment [7] it was 11 µM (inactive); in experiment [8], 5 µM (inactive); in experiment [9] it was 11.1 µM (inactive); in [10] it was 4.69 µM (inactive); in experiment [11], 4.71 µM (inactive). In addition, the GI50 in experiment [12] is 5.96 µM (inactive); in experiment [20] it was 15.3 µM (inactive); in experiment [13], 6.76 µM (inactive); in experiment [14], 15.5 µM (inactive); in experiment [15], 20.3 µM (inactive); in [18], 12.9 µM (inactive). The GI50 in experiment [16] was 12.7 µM (inactive).
For the compound `CC(O)c1nc(C#N)c(N)o1` (configuration not stated), the GI50 in experiment [1], in experiment [2], in [3], in [4], in [6] and in experiment [7] was > 100 µM (inactive) in each case. Further, the GI50 in experiment [8], in experiment [9], in experiment [10], in experiment [11], in experiment [20] and in [14] was > 100 µM (inactive) each time. The GI50 in experiment [15], in experiment [18], in experiment [19] and in [16] was > 100 µM (inactive) in each case.
For `Cc1ccc([N+](=O)[O-])cc1NC(=O)C(=O)C1CCC2=C(Sc3ccccc3N2)C1=O` (configuration not stated), the GI50 in experiment [1] is > 100 µM (inactive); in experiment [2], > 100 µM (inactive); in experiment [3], 52 µM (inactive); in experiment [4] it was > 100 µM (inactive); in experiment [17], > 100 µM (inactive); in experiment [5] it was over 100 µM. Moreover, the GI50 in experiment [6], in [7], in experiment [8], in experiment [9], in experiment [10] and in experiment [11] was > 100 µM (inactive) in each case. For the same compound, the GI50 in [12], in experiment [20], in experiment [13], in experiment [14], in experiment [15] and in experiment [18] was > 100 µM (inactive) in each case. In experiment [16], the GI50 was > 100 µM (inactive).
`CN(C)CCCNCc1cccc2ccccc12`: the GI50 is > 100 µM (inactive) in experiment [1]; > 100 µM (inactive) in experiment [2]; > 100 µM (inactive) in [4]; over 100 µM in [5]; > 100 µM (inactive) in [6]; 78.3 µM (inactive) in experiment [7]. Further, the GI50 in experiment [8], in experiment [9], in experiment [10], in experiment [11], in experiment [12] and in experiment [20] was > 100 µM (inactive) each time. Moreover, the GI50 in experiment [13], in experiment [14], in experiment [15], in [18], in [19] and in [16] was > 100 µM (inactive) throughout.
As for `O=c1[nH]c2ccccc2nc1CBr`, the GI50 in experiment [1] is 2.02 µM (inactive); in experiment [2] it was 12.3 µM (inactive); in experiment [3], 7.33 µM (inactive); in experiment [4], 3.3 µM (inactive); in [17], 20.6 µM (inactive); in experiment [5], 8.95 µM. Besides, the GI50 in experiment [6] was 21.3 µM (inactive); in experiment [7], 3.39 µM (inactive); in experiment [8], 6.24 µM (inactive); in experiment [9] it was 4.22 µM (inactive); in [10], 2.56 µM (inactive); in [12], 12.3 µM (inactive). Moreover, the GI50 in experiment [20] was 14.6 µM (inactive); in [13], 4.62 µM (inactive); in experiment [14] it was 10.8 µM (inactive); in experiment [15] it was 21.5 µM (inactive); in experiment [18], 12.8 µM (inactive); in experiment [19] it was 12.5 µM (inactive). The GI50 in experiment [16] was 13.8 µM (inactive).
For the compound `CC(NC(=O)CNP(=O)(c1ccccc1)c1ccccc1)C(=O)NC(Cc1ccccc1)C(=O)OCc1ccccc1` (configuration not stated), the GI50 was 22.2 µM (inactive) in experiment [1]; > 100 µM (inactive) in [3]; 24.1 µM (inactive) in experiment [4]; over 100 µM in [5]; > 100 µM (inactive) in experiment [6]; > 100 µM (inactive) in experiment [7]. For the same compound, the GI50 was 92.9 µM (inactive) in [8]; 66.5 µM (inactive) in [9]; 25.6 µM (inactive) in experiment [10]; 24.6 µM (inactive) in experiment [11]; 50.2 µM (inactive) in [12]; 37.8 µM (inactive) in experiment [20]. For the same compound, the GI50 was 25.7 µM (inactive) in experiment [14]; 21 µM (inactive) in experiment [15]; 19.6 µM (inactive) in [18]; > 100 µM (inactive) in experiment [19]; > 100 µM (inactive) in experiment [16].
Regarding `CCOC(=O)c1nc2ccccc2nc1Oc1ccc(C#N)cc1`, the GI50 in experiment [1] was > 100 µM (inactive); in experiment [2] it was > 100 µM (inactive); in experiment [4], > 100 µM (inactive); in experiment [5], over 100 µM; in experiment [6], > 100 µM (inactive); in experiment [7], 96.6 µM (inactive). Besides, the GI50 in [8], in experiment [9], in [10], in [11], in experiment [12] and in experiment [13] was > 100 µM (inactive) throughout. Also, the GI50 in [14], in experiment [15], in experiment [19] and in experiment [16] was > 100 µM (inactive) in each case.
